Values belong to the molecule of their own block, whether it stands above or below them.
Key:
[1] = target: T1, Lysine-specific demethylase 4A (Homo sapiens, UniProt O75164)
T1 sequence (O75164 whole entry): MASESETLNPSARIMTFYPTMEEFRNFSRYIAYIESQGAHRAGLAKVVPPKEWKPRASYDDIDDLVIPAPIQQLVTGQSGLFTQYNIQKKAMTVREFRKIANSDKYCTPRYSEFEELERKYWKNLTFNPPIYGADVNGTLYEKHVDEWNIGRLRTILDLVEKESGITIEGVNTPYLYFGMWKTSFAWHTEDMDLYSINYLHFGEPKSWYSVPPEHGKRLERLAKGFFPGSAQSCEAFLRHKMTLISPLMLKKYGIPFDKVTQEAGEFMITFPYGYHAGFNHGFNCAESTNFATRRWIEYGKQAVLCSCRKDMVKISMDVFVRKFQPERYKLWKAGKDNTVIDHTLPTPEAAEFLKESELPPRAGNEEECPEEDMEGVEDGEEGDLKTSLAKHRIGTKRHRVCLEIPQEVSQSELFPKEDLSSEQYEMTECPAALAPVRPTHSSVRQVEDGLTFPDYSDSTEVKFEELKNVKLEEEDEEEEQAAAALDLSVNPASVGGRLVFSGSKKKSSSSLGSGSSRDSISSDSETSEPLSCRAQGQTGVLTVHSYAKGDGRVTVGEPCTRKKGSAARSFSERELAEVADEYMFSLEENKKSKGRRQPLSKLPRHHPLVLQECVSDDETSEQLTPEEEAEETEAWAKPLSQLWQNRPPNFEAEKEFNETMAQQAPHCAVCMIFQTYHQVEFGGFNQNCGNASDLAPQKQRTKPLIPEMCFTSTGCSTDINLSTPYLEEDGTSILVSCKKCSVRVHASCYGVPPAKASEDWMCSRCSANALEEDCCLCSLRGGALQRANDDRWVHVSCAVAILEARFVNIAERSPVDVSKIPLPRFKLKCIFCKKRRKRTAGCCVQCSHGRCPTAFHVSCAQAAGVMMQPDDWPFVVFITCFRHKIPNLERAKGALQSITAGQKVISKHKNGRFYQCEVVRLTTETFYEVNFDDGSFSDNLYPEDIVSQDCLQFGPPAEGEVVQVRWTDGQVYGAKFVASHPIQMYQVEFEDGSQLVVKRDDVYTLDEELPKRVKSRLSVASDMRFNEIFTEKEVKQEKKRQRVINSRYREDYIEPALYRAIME

[2] = target: T1, Lysine-specific demethylase 4A; remark: listed apart in the source
[3] = target: T2, Lysine-specific demethylase 5A (Homo sapiens, UniProt P29375); parameters: species or system Sf9
[4] = target: Lysine-specific demethylase 6B (Homo sapiens, UniProt O15054); test: Inhibition of human C-terminal FLAG-tagged KDM6B (1043 residues) expressed in baculovirus infected sf9 cells using H3K27me3 (21 to 44 residues) substrate preincubated for 10 mins followed by substrate addition measured after 45 mins by TR-FRET assay
[5] = target: T1, Lysine-specific demethylase 4A; remark: listed apart in the source
[6] = target: T3, Lysine-specific demethylase 2A (Homo sapiens, UniProt Q9Y2K7); test: Competitive inhibition of recombinant His6-tagged KDM2A (1 to 517 residues) (unknown origin) expressed in Escherichia coli BL21 cells using methylstat as substrate preincubated for 30 mins followed by substrate addition measured after 4 hrs by fluorescence polarization assay
T3 sequence (Q9Y2K7 whole entry): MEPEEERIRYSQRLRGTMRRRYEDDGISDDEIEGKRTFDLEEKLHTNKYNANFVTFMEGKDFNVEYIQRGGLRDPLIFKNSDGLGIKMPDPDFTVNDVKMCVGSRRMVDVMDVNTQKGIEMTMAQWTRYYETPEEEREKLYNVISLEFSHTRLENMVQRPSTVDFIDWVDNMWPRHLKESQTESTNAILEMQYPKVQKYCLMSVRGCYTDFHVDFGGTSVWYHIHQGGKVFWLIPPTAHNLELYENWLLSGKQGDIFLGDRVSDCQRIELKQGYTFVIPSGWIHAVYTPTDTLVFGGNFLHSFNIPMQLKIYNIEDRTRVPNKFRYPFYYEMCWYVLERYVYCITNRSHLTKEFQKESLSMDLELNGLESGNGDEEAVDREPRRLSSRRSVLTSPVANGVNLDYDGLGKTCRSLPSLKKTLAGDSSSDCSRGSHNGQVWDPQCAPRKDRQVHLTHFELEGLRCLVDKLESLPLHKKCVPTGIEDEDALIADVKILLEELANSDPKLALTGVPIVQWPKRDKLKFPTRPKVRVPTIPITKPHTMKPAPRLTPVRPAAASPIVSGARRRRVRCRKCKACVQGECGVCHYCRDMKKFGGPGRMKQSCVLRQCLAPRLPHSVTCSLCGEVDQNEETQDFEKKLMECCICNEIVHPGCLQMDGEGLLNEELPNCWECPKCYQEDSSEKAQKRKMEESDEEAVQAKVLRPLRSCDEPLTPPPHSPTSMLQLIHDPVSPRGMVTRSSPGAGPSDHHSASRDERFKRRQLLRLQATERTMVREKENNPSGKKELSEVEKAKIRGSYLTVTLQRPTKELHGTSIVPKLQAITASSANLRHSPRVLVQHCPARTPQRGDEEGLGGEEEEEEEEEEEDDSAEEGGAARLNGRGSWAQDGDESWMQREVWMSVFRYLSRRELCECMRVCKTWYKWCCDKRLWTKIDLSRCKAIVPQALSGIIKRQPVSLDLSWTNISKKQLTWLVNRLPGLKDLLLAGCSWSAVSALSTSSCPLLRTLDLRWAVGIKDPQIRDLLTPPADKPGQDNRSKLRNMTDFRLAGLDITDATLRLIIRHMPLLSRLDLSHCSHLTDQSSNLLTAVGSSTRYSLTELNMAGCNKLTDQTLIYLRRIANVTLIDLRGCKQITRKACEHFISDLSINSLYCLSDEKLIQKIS

[7] = target: T3, Lysine-specific demethylase 2A; test: Inhibition of KDM2A in human MIAPaCa2 cells assessed as increase in H3K36me2 level after 48 hrs by Hoechst 33258 staining based immunofluorescence assay; type: cell-based, MIA PaCa-2
[8] = Growth inhibition of human MIAPaCa2 cells after 48 hrs by CellTiter-Glo assay; type: functional; details: MIA PaCa-2, 48 h
[9] = target: T1, Lysine-specific demethylase 4A; test: biochemical
[10] = target: T2, Lysine-specific demethylase 5A

T2 sequence (P29375 whole entry, the tested form may be a part): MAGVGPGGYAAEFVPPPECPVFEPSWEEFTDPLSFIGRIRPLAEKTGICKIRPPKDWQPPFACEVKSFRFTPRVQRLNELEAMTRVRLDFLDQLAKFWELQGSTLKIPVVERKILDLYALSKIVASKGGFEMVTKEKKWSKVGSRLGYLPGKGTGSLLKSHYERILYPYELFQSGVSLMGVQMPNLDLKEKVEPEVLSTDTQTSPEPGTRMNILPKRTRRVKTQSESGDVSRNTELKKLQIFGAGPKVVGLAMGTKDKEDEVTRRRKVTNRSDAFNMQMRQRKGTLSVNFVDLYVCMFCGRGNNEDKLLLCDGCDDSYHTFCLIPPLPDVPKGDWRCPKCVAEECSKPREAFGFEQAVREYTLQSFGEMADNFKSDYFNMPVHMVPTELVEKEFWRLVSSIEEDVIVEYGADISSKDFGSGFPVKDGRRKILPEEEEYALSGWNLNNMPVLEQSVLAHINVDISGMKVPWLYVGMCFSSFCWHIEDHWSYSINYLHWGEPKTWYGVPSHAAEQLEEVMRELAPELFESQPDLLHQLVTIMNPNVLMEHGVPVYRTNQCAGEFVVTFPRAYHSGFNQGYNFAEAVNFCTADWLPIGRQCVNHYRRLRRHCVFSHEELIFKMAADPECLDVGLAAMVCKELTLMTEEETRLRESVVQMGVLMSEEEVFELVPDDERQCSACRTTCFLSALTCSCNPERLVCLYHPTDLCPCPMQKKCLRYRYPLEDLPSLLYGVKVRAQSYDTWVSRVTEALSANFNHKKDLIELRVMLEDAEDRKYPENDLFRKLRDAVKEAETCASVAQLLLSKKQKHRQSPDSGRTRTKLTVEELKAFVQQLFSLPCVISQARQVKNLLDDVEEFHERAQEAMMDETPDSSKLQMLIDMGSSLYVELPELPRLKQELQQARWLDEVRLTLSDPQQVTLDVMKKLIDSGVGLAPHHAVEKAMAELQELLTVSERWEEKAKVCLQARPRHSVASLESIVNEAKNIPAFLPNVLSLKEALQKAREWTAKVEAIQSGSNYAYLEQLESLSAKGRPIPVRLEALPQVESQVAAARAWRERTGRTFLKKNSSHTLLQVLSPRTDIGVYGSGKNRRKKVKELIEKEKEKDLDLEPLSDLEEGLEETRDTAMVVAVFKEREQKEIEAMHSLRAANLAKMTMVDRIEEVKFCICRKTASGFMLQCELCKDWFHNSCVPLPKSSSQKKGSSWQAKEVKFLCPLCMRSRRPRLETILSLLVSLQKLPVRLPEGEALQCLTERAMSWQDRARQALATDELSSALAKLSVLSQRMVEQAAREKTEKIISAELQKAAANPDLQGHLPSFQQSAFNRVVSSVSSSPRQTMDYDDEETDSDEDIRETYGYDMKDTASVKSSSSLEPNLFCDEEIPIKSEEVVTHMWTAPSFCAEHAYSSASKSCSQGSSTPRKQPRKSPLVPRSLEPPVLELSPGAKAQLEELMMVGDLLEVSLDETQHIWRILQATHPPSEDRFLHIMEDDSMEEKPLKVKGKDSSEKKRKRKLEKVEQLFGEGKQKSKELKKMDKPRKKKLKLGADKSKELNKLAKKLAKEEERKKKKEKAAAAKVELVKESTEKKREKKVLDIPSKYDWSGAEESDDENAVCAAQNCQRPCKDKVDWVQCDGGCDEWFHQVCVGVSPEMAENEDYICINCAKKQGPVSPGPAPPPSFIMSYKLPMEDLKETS
Chain of Lysine-specific demethylase 6B (O15054 whole entry, the tested form may be a part): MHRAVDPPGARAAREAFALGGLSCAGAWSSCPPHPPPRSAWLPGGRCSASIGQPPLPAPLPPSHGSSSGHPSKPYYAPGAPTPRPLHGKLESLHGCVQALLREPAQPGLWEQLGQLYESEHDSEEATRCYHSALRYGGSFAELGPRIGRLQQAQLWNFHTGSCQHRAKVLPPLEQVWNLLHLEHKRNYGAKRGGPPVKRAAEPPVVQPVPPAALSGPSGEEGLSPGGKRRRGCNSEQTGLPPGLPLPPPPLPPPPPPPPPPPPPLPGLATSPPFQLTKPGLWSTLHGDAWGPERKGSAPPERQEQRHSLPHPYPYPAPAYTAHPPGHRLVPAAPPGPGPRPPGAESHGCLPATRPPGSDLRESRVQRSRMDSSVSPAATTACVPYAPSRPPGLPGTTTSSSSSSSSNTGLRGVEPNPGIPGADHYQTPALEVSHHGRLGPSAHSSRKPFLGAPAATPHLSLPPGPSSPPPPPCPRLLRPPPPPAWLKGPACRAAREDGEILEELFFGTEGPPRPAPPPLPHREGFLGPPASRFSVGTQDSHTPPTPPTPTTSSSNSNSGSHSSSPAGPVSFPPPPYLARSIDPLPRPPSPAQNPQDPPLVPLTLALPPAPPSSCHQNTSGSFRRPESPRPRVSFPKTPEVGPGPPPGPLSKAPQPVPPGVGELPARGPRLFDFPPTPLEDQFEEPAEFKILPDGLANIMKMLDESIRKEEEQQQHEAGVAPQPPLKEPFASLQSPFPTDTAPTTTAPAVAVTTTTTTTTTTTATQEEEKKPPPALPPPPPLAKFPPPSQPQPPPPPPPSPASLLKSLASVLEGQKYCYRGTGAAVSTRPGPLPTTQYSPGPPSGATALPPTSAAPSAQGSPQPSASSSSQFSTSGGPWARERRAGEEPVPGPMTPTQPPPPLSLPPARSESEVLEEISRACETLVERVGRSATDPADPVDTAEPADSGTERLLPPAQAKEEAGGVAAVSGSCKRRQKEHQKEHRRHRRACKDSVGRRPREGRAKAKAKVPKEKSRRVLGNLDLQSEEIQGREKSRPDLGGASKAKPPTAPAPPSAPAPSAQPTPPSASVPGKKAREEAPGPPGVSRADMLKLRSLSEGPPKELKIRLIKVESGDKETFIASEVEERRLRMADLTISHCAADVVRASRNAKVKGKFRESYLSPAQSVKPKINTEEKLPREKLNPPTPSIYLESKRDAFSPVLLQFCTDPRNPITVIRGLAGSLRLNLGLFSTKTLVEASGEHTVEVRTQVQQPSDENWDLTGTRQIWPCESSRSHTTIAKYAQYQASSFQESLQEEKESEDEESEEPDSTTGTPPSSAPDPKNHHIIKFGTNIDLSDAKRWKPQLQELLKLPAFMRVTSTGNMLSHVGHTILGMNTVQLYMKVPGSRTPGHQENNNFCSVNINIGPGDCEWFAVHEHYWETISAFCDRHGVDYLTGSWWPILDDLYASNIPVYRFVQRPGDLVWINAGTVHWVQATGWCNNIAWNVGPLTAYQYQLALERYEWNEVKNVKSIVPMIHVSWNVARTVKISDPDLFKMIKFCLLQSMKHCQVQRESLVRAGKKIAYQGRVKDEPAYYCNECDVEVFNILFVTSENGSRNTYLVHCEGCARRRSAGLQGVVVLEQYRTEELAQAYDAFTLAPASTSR

SMILES: NNC(=O)Cc1nnn[nH]1
- IC50 [1]: 46600 nM
- IC50 [2]: 2400 nM
- IC50 [3]: 10400 nM
- IC50 [4]: 98000 nM
- Ki [5]: 1940 nM

- Ki [6]: 280 nM
- EC50 [7]: 280 nM
- Ki [9]: 420 nM
SMILES: CCCCCC[n+]1ccc(/C=C/c2ccc(N(C)C)cc2)cc1
- GI50 [8]: 71 nM

- IC50 [10]: 41000 nM
SMILES: CCCCc1oc2ccccc2c1C(=O)c1cc(I)c(OCCCC[N+](C)(C)C)c(I)c1

From ChEMBL document CHEMBL3784917, “Recent Progress in Histone Demethylase Inhibitors” (J Med Chem, 2016)
